Where two headings read alike, the source gives them in different places.
How the values were obtained:
[1] = test system: Thymocytes of suprarenalectomized rats; test: Anti-glucocorticoid activity: inhibition of the effect of dexamethasone on incorporation of tritiated uridine in thymocytes; assay type: cell-based; details: for inhibition at 1 µM / inhibition at 0.1 µM / inhibition at 0.01 µM: Thymocyte, read-out: % inhibition of the effect of Dexamethasone
Protocol: (II). Anti-glucocorticoid activity
The technique utilized envolved from the method described by Dausse et al in "Molecular Pharmacology", Vol. 13, p. 948-955 (1977) ("the relationship between glucocorticoid structure and effects upon Thymocytes") for the thymocytes of mice. Thymocytes of suprarenalectomized rats were incubated at 37° C. for 3 hours in a nutritive medium containing 5.10^-8 M of dexamethasone in the presence or not of a product under study at different concentrations. Tritiated uridine was added and the incubation was continued for one hour. The incubates were cooled, then treated with a 5% solution of trichloroacetic acid, filtered on Whatman paper GF/A, and washed three times with a 5% solutioh of trichloroacetic acid. The radio-activity retained by the filter was determined.

[2] = target: T1, Glucocorticoid receptor of rat thymus (Rattus norvegicus, UniProt P06536); test: Glucocorticoid receptor of rat thymus: relative liaison affinity (RLA), displacement of tritiated dexamethasone; assay type: binding, Male Sprague-Dawley EOPS rats; details: for relative liaison affinity (RLA), Glucocorticoid receptor: vs tritiated dexamethasone; for affinity for the glucocorticoid receptors (in words): conclusion
T1 construct: Their thymus was removed and homogenized at 0° C; from tissue; host or cells: 105,000 g supernatant (cytosol) of thymus from adrenalectomized male Sprague-Dawley rats
T1 sequence (P06536 1-795): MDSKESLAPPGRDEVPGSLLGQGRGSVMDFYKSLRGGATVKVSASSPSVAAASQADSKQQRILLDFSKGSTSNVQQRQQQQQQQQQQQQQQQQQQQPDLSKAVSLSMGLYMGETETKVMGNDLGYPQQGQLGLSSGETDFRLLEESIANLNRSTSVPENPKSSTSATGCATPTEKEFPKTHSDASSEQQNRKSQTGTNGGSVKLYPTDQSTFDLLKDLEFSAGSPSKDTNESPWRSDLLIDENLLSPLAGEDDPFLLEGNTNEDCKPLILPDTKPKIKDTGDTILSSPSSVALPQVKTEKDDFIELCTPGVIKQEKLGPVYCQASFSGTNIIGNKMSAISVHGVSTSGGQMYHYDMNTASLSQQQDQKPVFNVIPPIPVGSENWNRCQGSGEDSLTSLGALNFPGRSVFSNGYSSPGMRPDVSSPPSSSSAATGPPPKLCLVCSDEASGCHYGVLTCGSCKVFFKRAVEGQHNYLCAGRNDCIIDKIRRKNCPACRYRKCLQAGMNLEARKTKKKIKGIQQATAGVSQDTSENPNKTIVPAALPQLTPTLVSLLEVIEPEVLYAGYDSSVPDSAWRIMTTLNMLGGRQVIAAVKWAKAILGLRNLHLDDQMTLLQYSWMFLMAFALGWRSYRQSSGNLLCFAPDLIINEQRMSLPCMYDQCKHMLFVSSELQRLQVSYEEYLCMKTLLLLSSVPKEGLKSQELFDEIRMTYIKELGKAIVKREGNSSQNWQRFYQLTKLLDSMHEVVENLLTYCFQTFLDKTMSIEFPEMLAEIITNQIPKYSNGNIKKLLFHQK
Protocol: Glucocorticoid receptor of rat thymus:
Their thymus was removed and homogenized at 0° C. in a buffer Tris 10 mM saccharose 0.25M, dithiotreitol 2 mM, HCl pH 7.4, using a Potter polytetrafluoroethylene-glass (1 g of tissue for 10 ml of TS). The homogenate was then ultracentrifuged at 105,000 g for 90 minutes at 0° C. Aliquots of the supernatant so obtained were incubated at 0° C. for a time (t) with a constant concentration (T) of tritiated dexamethasone in the presence of increasing concentrations (0-2,500.10^-9 M) either of cold dexamethasone, or of the cold product under test. The concentration of tritiated dexamethasone bonded (B) was then measured in each incubate by the technique of adsorption to dextran-carbon.
(§1) Calculation of the relative liaison affinity
(§2) The calculation of the relative liaison affinity (RLA) was identical for all the receptors. The two following curves were traced: the percentage of tritiated hormone bonded B as a function of the logarithm of the concentration of the cold reference hormone, and B/T as a function of the logarithm of the concentration of the cold product under test. The straight line was determined of the equation [formula] (B/T) max=percentage of tritiated hormone bonded for an incubation of this tritiated hormone at the concentration (T).
(§3) (B/T) min.=percentage of tritiated hormone bonded for an incubation of the tritiated hormone at the concentration (T) in the presence of a great excess of cold hormone (2500.10^-9 M).
(§4) The intersections of the straight line I50 and of the curves enabled the concentrations of the cold reference hormone (CH) and the cold product under test (CX) to be evaluated which inhibit by 50% the bonding of the tritiated hormone on the receptor.

[3] = target: T2, Progestogen receptor of rabbit uterus (Oryctolagus cuniculus, UniProt P06186); test: Progestogen receptor of rabbit uterus: relative liaison affinity (RLA), displacement of tritiated Product R; assay type: binding; details: for relative liaison affinity (RLA), Progestogen receptor: vs tritiated Product R; for activity for the progestogen receptor (in words): conclusion
T2 construct: Their uterus were removed, weighed and homogenized at 0° C; from tissue; host or cells: 105,000 g supernatant (cytosol) of uterus from estradiol-treated impuberal rabbits
T2 sequence (P06186 1-930): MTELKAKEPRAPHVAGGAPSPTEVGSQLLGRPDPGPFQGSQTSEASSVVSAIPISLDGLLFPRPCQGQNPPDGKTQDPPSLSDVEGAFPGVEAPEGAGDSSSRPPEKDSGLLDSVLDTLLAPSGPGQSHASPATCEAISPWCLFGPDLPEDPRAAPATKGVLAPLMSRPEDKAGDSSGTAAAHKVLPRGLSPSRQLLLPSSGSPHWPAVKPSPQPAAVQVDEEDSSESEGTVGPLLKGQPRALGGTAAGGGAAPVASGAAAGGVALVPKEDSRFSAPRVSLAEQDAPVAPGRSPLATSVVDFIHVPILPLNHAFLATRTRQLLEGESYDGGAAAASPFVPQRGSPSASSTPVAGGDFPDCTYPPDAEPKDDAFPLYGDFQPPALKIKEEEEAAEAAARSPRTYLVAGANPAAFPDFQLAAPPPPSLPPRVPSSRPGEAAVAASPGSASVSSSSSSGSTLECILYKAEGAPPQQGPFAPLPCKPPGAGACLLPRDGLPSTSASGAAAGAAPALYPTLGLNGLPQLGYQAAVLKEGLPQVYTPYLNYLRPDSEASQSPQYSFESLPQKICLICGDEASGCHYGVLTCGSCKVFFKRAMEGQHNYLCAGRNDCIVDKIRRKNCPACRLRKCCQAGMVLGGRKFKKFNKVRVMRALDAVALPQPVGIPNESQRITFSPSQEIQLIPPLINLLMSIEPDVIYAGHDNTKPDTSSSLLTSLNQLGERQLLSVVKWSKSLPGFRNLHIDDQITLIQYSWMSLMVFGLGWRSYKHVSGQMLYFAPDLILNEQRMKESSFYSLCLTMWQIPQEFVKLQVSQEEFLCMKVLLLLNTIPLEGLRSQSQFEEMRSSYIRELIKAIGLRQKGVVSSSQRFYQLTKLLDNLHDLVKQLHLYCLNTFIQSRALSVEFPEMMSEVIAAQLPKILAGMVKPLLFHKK
Protocol: (1) Study of the activity on the hormone receptors
Progestogen receptor of rabbit uterus
Impuberal rabbits of about 1 kg received a cutaneous application of […] of estradiol and 5 days after this treatment, the animals were killed. Their uterus were removed, weighed and homogenized at 0° C. using a Potter teflon-glass in a TS buffered solution (Tris 10 mM, saccharose 0.25M, HCl pH 7.4) (1 g of tissue for 50 ml of TS). The homogenate was then ultracentrifuged at 105,000 g for 90 minutes at 0° C. Aliquots of the supernatant so obtained were incubated at 0° C. for a time t, with a constant concentration (T) of Product R tritiated (17,21-dimethyl-19-nor-Δ^4,9 -pregnadiene-3,20-dione) in the presence of increasing concentrations (0-2,500 10^-9 M) either of R cold, or of cold progesterone, or of the cold product under test. The concentration of tritiated R bonded (B) was then measured in each incubate by the technique of adsorption to dextran-carbon.
as §1, §2, §3, §4
The relative liaison affinity (RLA) of the product under test was determined by the equation [formula] and the following results were obtained: […]

[4] = 5.10^-8 M dexamethasone, rat thymocytes
[5] = product at 10^-6 M, 5.10^-8 M dexamethasone, rat thymocytes, 37° C., 3 hours
[6] = product at 10^-7 M, 5.10^-8 M dexamethasone, rat thymocytes, 37° C., 3 hours
[7] = product at 10^-8 M, 5.10^-8 M dexamethasone, rat thymocytes, 37° C., 3 hours

SMILES	effect on dexamethasone-induced diminution in the incorporation of tritiated uridine (in words) [1, 4]	inhibition at 1 µM [1, 5] [%]	inhibition at 0.1 µM [1, 6] [%]	inhibition at 0.01 µM [1, 7] [%]	relative liaison affinity (RLA), Glucocorticoid receptor ([2]; Incubation time 4 H at 0° C.)	relative liaison affinity (RLA), Glucocorticoid receptor ([2]; Incubation time 24 H at 0° C.)	affinity for the glucocorticoid receptors (in words) [2]	relative liaison affinity (RLA), Progestogen receptor ([3]; Incubation time 2 H at 0° C.)	relative liaison affinity (RLA), Progestogen receptor ([3]; Incubation time 24 H at 0° C.)	activity for the progestogen receptor (in words) [3]	inhibition at 0.01 µM ([1]; Rattus norvegicus, 3 h) [%]	inhibition at 0.1 µM ([1]; Rattus norvegicus, 3 h) [%]	inhibition at 1 µM ([1]; Rattus norvegicus, 3 h) [%]	incorporation of tritiated uridine (in words) ([1]; rat thymocytes, dexamethasone)
CC#C[C@]1(O)CC[C@H]2[C@@H]3CCC4=CC(=O)CC[C@]4(Cc4ccccc4)C3=CC[C@@]21C [Example 1, 10β-benzyl-17α-(prop-1-ynyl)-Δ^4,9(11) -estradien-17β-ol-3-one]	oppose this effect	80	55	20	160	57	very marked affinity	0.1	0.1	negligible activity	–	–	–	–
CC#C[C@]1(O)CC[C@H]2[C@@H]3CCC4=CC(=O)CC[C@]4(Cc4ccc(C)cc4)C3=CC[C@@]21C [Example 4, 10β-[4-methyl-benzyl]-17α-(prop-1-ynyl)-Δ^4,9(11) -estradiene-17β-ol-3-one]	oppose this effect	–	–	–	–	–	–	–	–	negligible activity	10	30	83	–
C=C(C)C[C@]12CCC(=O)C=C1CC[C@@H]1C2=CC[C@@]2(C)[C@H]1CC[C@@]2(O)C#CC [Example 7, 10β-(2-methyl-prop-2-en-1-yl)-17α-(prop-1-ynyl)-Δ^4,9(11) -estradien 17β-ol-3-one]	oppose this effect	65	16	10	226	112	very marked affinity	0.4	0.1	negligible activity	–	–	–	–
CC#C[C@]1(O)CC[C@H]2[C@@H]3CCC4=CC(=O)CC[C@]4(Sc4ccc(OC)cc4)C3=CC[C@@]21C [Example 10, 10β-[(4-methoxyphenyl)-thio]-17α-(prop-1-ynyl)-Δ^4,9(11) -estradien-17β-ol-3-one]	oppose this effect	–	–	–	218	152	very marked affinity	0.9	0.5	negligible activity	–	–	–	–
CC#C[C@]1(O)CC[C@H]2[C@@H]3CCC4=CC(=O)CC[C@]4(Cc4ccccc4F)C3=CC[C@@]21C [Example 12, 10β-[2-fluorobenzyl]-17α-(prop-1-ynyl)-Δ^4,9(11) -estradien-17β-ol-3-one]	oppose this effect	67	12	6	136	45	very marked affinity	0.1	0.1	negligible activity	–	–	–	–
C[C@@H]1C[C@H]2[C@@H]3CCC4=CC(=O)C=C[C@]4(C)[C@@]3(F)[C@@H](O)C[C@]2(C)[C@@]1(O)C(=O)CO [dexamethasone, reference compound]	–	–	–	–	–	–	–	–	–	–	–	–	–	diminution in the incorporation of tritiated uridine

Reference: patent publication US4753932A, “Novel 10-substituted steroids” (Roussel Uclaf, priority 1985, dated 1988)
